Patent publication US9796713B2, “Tricyclic compounds as alpha-7 nicotinic acetylcholine receptor ligands” (BRISTOL-MYERS SQUIBB COMPANY, priority 2014, dated 2017)

The compounds below were run against T1, α-7 nicotinic ACh receptor ion channel (Rattus norvegicus, UniProt Q05941) (assay: FLIPR Ca2+-sensitive fluorescence assay of α7 nicotinic acetylcholine receptor channel function (agonist activity) in HEK 293 cells). Conditions: Table 1; Ca2+ flux, HEK-293 cells expressing the channel.
T1 construct: expressed in transfected cells
T1 sequence (Q05941 23-502): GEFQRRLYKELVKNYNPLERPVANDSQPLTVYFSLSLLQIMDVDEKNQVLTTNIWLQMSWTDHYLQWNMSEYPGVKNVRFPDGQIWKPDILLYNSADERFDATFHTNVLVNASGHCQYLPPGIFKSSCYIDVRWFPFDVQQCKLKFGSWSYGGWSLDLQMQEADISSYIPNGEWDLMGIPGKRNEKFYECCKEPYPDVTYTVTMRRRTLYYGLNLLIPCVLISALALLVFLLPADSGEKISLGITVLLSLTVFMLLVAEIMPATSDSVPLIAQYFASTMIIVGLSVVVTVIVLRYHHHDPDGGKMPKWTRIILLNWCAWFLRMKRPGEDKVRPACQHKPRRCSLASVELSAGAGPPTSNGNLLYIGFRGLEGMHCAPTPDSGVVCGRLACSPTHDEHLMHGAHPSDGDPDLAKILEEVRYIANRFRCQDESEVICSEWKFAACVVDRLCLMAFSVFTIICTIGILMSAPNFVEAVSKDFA
Assay type: cell-based
Description: I) α7 Nicotinic Acetycholine Receptor Binding. Membranes were prepared for binding using HEK293 cells stably expressing the rat α7 nicotinic acetycholine receptor (rat α7 nAChR). Cells were homogenized at 4° C. in hypotonic lysis buffer consisting of 10 mM Tris (pH 7.4), 5 mM EDTA and protease inhibitors and centrifuged at 32000×g for 20 minutes. The pellet was washed once in membrane wash buffer consisting of 50 mM Tris (pH 7.4), 1 mM EDTA and protease inhibitors and centrifuged at 32000×g for 20 minutes. This pellet was then resuspended in assay buffer consisting 50 mM KH2PO4 (pH 7.4 at 25° C.), 1 mM EDTA, 0.005% Triton-X 100 and 0.1% (v/v) Sigma Protease Inhibitor Cocktail. Aliquots were then frozen in dry ice/ethanol and kept at −80° C. until the day of the assay. II) A Ca^2+-Sensitive, Fluorescence-Based Assay α-7 for Nicotinic Acetylcholine Receptor Channel Function in Mammalian Cells (“FLIPR”). Summary: Lead compounds are evaluated for agonist activity at α-7, α3β4, α4αβ2, and α1β1δ1ε sub-types of nicotinic ACh receptor ion channels expressed in mammalian HEK 293 cells. Agonist potency and efficacy values are determined from kinetic fluorescence Ca^2+ influx measurements made using a 384 well FLIPR (Fluorescence Image Plate Reader). The utility of fluorescent indicators for measuring changes in intracellular divalent cation concentrations, particularly Ca^2+, for drug discovery endeavors is well documented (Rudiger, R., et al., Nature Reviews, 2003, 4:579-586; Gonzalez J. E., et al., Receptors and Channels, 2002, 8:283-295). In this assay, channel expressing HEK cell lines seeded in 384 well assay plates are loaded with a membrane permeant fluorescent Ca^2+ indicator dye, whose 510 nm green emission signal increases in response to elevation of intracellular Ca^2+ concentration. The basal fluorescence from the cells is monitored in real time, followed by the acute addition of test compounds. If the compound is an agonist at any of the non-selective cation channels, the latter open and allow the movement of extracellular Ca^2+ ions into the cell cytoplasm, where they bind to the Ca^2+ indicator dye, and produce an increase in fluorescence output signal, which is detected by a cooled CCD imaging camera.
(§1) Materials and Methods: Reagents: The acetomethoxy (AM) ester of the Ca^2+ indicator dye Fluo-4 was obtained from InVitrogen, (Carlsbad, Calif.). Acetylcholine and all buffer constituents were purchased from Sigma Chemical Company, St. Louis, Mo. G418 and Minimal Essential Medium were purchased from InVitrogen Life Technologies, Carlsbad, Calif. Fetal bovine serum was purchased from (InVitrogen, Carlsbad, Calif.).
(§2) Cell Culture: HEK-293 cells were grown in Minimal Essential Medium containing 10% (v/v) fetal bovine serum at 37° C. in a 5% CO2 incubator. HEK-293 cells stably expressing the ion channels were grown in the same medium with the addition of 500 μg/ml G418.
Ca^2+ flux assays of Ca^2+ channels expressed in HEK-293 cells: HEK-293 cells expressing the ion channels of interest were plated in 384 well, black-walled, clear-bottomed, poly-D-lysine coated plates at a density of ˜20,000 cells/well in 20 μl of Minimal Essential Medium containing 10% (v/v) fetal bovine serum and incubated for 2 days at 29° C. in a 5% CO2 incubator. Prior to assay, cells were loaded with the Fluo-4 AM ester. Cell loading was accomplished by removing the culture medium and replacing it with 30 μl/well of the AM ester of the dye (5 μM) mixed with Hanks Balanced Salt Solution (#14175-095) containing 20 mM HEPES, 2.5 mM probenecid, 0.5 mM CaCl2, 1 mM MgCl2 and 10 μM atropine. Dye loading was allowed to proceed for 90 minutes at room temperature at which time the dye loading solution was removed and replaced with 40 μl/well of Hanks buffer. Cells loaded with dye were loaded onto a FLIPR384 (Molecular Devices, Sunnyvale, Calif.). Fluo-4 dye was excited using the 488 nm line of an argon laser. Emission was filtered using a 540+/−30 nm bandpass filter. […]
With `O=C(c1n[nH]c2cc(Cl)ccc12)N1C2CC3CCN(C2)CC31` (stereo not shown) [Example 7, (6-chloro-1H-indazol-3-yl)(hexahydro-2,6-methanopyrrolo[2,3-c]pyridin-1(2H)-yl)methanone] the EC50 was 57 nM. Compound `O=C(c1n[nH]c2ccc(Cl)cc12)N1C2CC3CCN(C2)CC31` (stereo not shown) [Example 2, (5-chloro-1H-indazol-3-yl)(hexahydro-2,6-methanopyrrolo[2,3-c]pyridin-1(2H)-yl)methanone] has an EC50 of 590 nM. Work on `COc1ccc2c(C(=O)N3C4CC5CCN(C4)CC53)n[nH]c2c1` (stereo not shown) [Example 9, (6-methoxy-1H-indazol-3-yl)(hexahydro-2,6-methanopyrrolo[2,3-c]pyridin-1(2H)-yl)methanone] yielded an EC50 of 260 nM.

Same assay, conditions: Table 2; Ca2+ flux, HEK-293 cells expressing the channel
`O=C(c1n[nH]c2ccccc12)N1[C@H]2C[C@@H]3CC[N@](C2)C[C@@H]31` [Example 18, ((2S,3aS,6R,7aR)-hexahydro-2,6-methanopyrrolo[2,3-c]pyridin-1(2H)-yl)(1H-indazol-3-yl)methanone] gave an EC50 of 55 nM. `O=C(c1n[nH]c2ncccc12)N1[C@H]2C[C@@H]3CC[N@](C2)C[C@@H]31` [Example 24, ((2S,3aS,6R,7aR)-hexahydro-2,6-methanopyrrolo[2,3-c]pyridin-1(2H)-yl)(1H-pyrazolo[3,4-b]pyridin-3-yl)methanone] gave an EC50 of 1300 nM.

Same assay, conditions: Table 3; Ca2+ flux, HEK-293 cells expressing the channel
For `O=C(c1cc(C2CC2)[nH]n1)N1[C@@H]2C[C@H]3CC[N@@](C2)C[C@H]31` [Example 27, ((2R,3aR,6S,7aS)-hexahydro-2,6-methanopyrrolo[2,3-c]pyridin-1(2H)-yl)(5-cyclopropyl-1H-pyrazol-3-yl)methanone], the EC50 was over 100000 nM.

The compounds below were run against T2, α7-HI (Rattus norvegicus, UniProt Q05941) (assay: FLIPR Ca2+-sensitive fluorescence assay, α7-HI (agonist activity) in HEK 293 cells). Conditions: Table 4; Ca2+ flux, HEK-293 cells expressing the channel; read-out: FLIPR α7-HI (EC50).
T2 construct: expressed in transfected cells
T2 sequence (Q05941 23-502): as above
Assay type: cell-based
Description: I) α7 Nicotinic Acetycholine Receptor Binding. Membranes were prepared for binding using HEK293 cells stably expressing the rat α7 nicotinic acetycholine receptor (rat α7 nAChR). Cells were homogenized at 4° C. in hypotonic lysis buffer consisting of 10 mM Tris (pH 7.4), 5 mM EDTA and protease inhibitors and centrifuged at 32000×g for 20 minutes. The pellet was washed once in membrane wash buffer consisting of 50 mM Tris (pH 7.4), 1 mM EDTA and protease inhibitors and centrifuged at 32000×g for 20 minutes. This pellet was then resuspended in assay buffer consisting 50 mM KH2PO4 (pH 7.4 at 25° C.), 1 mM EDTA, 0.005% Triton-X 100 and 0.1% (v/v) Sigma Protease Inhibitor Cocktail. Aliquots were then frozen in dry ice/ethanol and kept at −80° C. until the day of the assay. II) A Ca^2+-Sensitive, Fluorescence-Based Assay α-7 for Nicotinic Acetylcholine Receptor Channel Function in Mammalian Cells (“FLIPR”). Summary: Lead compounds are evaluated for agonist activity at α-7, α3β4, α4αβ2, and α1β1δ1ε sub-types of nicotinic ACh receptor ion channels expressed in mammalian HEK 293 cells. Agonist potency and efficacy values are determined from kinetic fluorescence Ca^2+ influx measurements made using a 384 well FLIPR (Fluorescence Image Plate Reader). […] In this assay, channel expressing HEK cell lines seeded in 384 well assay plates are loaded with a membrane permeant fluorescent Ca^2+ indicator dye, whose 510 nm green emission signal increases in response to elevation of intracellular Ca^2+ concentration. The basal fluorescence from the cells is monitored in real time, followed by the acute addition of test compounds.
as §1, §2
Ca^2+ flux assays of Ca^2+ channels expressed in HEK-293 cells: HEK-293 cells expressing the ion channels of interest were plated in 384 well, black-walled, clear-bottomed, poly-D-lysine coated plates at a density of ˜20,000 cells/well in 20 μl of Minimal Essential Medium containing 10% (v/v) fetal bovine serum and incubated for 2 days at 29° C. in a 5% CO2 incubator. Prior to assay, cells were loaded with the Fluo-4 AM ester. […] Dye loading was allowed to proceed for 90 minutes at room temperature at which time the dye loading solution was removed and replaced with 40 μl/well of Hanks buffer. Cells loaded with dye were loaded onto a FLIPR384 (Molecular Devices, Sunnyvale, Calif.). Fluo-4 dye was excited using the 488 nm line of an argon laser. Emission was filtered using a 540+/−30 nm bandpass filter. For evaluation of the effects of test compounds using the Ca^2+ flux assay, compounds to be tested were provided in assay ready plates. For nicotinic receptor ion channel expressing cells, the assay was initiated by the addition of 20 μl/well of Hanks buffer containing test compounds. For all assays, data were collected at 1 Hz for 10 seconds (baseline), at which time the compound containing stimulus buffers are added, and further measurements collected at 0.33 Hz for 3 min.
Data Analysis: The statistical robustness of the nicotinic receptor Ca^2+ flux assays is determined from blanks and totals wells. […] The raw fluorescence units data files generated on the FLIPR plate reader are automatically exported and processed by in-house data analysis tools.
For `Cc1ccc2c(C(=O)N3C4CC5CN(CCC53)C4)n[nH]c2c1` (stereo not drawn) [Example 49, ((2S*,3aR*,5R*,7aS*)-(6-methyl-1H-indazol-3-yl)(hexahydro-2,5-methanopyrrolo[3,2-c]pyridin-1(6H)-yl)methanone], the EC50 was 4.2 nM. Work on `O=C(c1noc2ccccc12)N1C2CC3CN(CCC31)C2` (stereo not drawn) [Example 47, ((2S*,3aR*,5R*,7aS*)-benzo[d]isoxazol-3-yl(hexahydro-2,5-methanopyrrolo[3,2-c]pyridin-1(6H)-yl)methanone] yielded an EC50 of 1300 nM. In the case of `O=C(c1n[nH]c2cc(Cl)ccc12)N1C2CC3CN(CCC31)C2` (stereo not drawn) [Example 46, ((2S*,3aR*,5R*,7aS*)-(6-chloro-1H-indazol-3-yl)(hexahydro-2,5-methanopyrrolo[3,2-c]pyridin-1(6H)-yl)methanone], the EC50 is reported as 10 nM. `Cc1ccc2c(C(=O)N3[C@@H]4C[C@H]5C[N@](CC[C@H]53)C4)n[nH]c2c1` [Example 49b, (2R,3aS,5S,7aR)-(6-methyl-1H-indazol-3-yl)(hexahydro-2,5-methanopyrrolo[3,2-c]pyridin-1(6H)-yl)methanone] showed an EC50 of 47 nM. In the case of `O=C(c1cc2cccc(Cl)c2s1)N1C2CC3CN(CCC31)C2` (stereo not drawn) [Example 35, ((2S*,3aR*,5R*,7aS*)-(7-chloro-benzo[b]thiophen-2-yl)(hexahydro-2,5-methanopyrrolo[3,2-c]pyridin-1(6H)-yl)methanone], the EC50 is reported as 5600 nM. In the case of `Cn1nc(C(=O)N2C3CC4CN(CCC42)C3)c2ccccc21` (stereo not drawn) [Example 37, ((2S*,3aR*,5R*,7aS*)-(hexahydro-2,5-methanopyrrolo[3,2-c]pyridin-1(6H)-yl)(1-methyl-1H-indazol-3-yl)methanone], the EC50 is reported as over 100000 nM. In the case of `O=C(c1n[nH]c2c(Cl)cccc12)N1C2CC3CN(CCC31)C2` (stereo not drawn) [Example 45, ((2S*,3aR*,5R*,7aS*)-(7-chloro-1H-indazol-3-yl)(hexahydro-2,5-methanopyrrolo[3,2-c]pyridin-1(6H)-yl)methanone], the EC50 is reported as over 100000 nM. With `O=C(c1n[nH]c2ccc(Cl)cc12)N1C2CC3CN(CCC31)C2` (stereo not drawn) [Example 40, ((2S*,3aR*,5R*,7aS*)-(5-chloro-1H-indazol-3-yl)(hexahydro-2,5-methanopyrrolo[3,2-c]pyridin-1(6H)-yl)methanone] the EC50 was 79 nM. In the case of `O=C(c1ccc(Cl)cc1)N1C2CC3CN(CCC31)C2` (stereo not drawn) [Example 36, ((2S*,3aR*,5R*,7aS*)-(4-chlorophenyl)(hexahydro-2,5-methanopyrrolo[3,2-c]pyridin-1(6H)-yl)methanone], the EC50 is reported as over 100000 nM. In the case of `COc1cccc2[nH]nc(C(=O)N3C4CC5CN(CCC53)C4)c12` (stereo not drawn) [Example 48, ((2S*,3aR*,5R*,7aS*)-(4-methoxy-1H-indazol-3-yl)(hexahydro-2,5-methanopyrrolo[3,2-c]pyridin-1(6H)-yl)methanone], the EC50 is reported as 7400 nM. With `COc1ccc2c(C(=O)N3C4CC5CN(CCC53)C4)n[nH]c2c1` (stereo not drawn) [Example 43, ((2S*,3aR*,5R*,7aS*)-(6-methoxy-1H-indazol-3-yl)(hexahydro-2,5-methanopyrrolo[3,2-c]pyridin-1(6H)-yl)methanone] the EC50 was 23 nM.

Same assay, conditions: Table 5; Ca2+ flux, HEK-293 cells expressing the channel; read-out: FLIPR α7-HI (EC50)
In the case of `O=C(c1n[nH]c2ccccc12)N1C2CC3C1CCCN3C2` (stereo not shown) [Example 50, (1H-indazol-3-yl)(octahydro-2,8-epiminoindolizin-9-yl)methanone], the EC50 is reported as 360 nM. `O=C(c1cc2cccc(Cl)c2s1)N1C2CC3C1CCCN3C2` (stereo not shown) [Example 51, (7-chlorobenzo[b]thiophen-2-yl)(octahydro-2,8-epiminoindolizin-9-yl)methanone] gave an EC50 of over 100000 nM.
